Source: patent US20250026745A1 (Bluejay Therapeutics, Inc., priority 2023, published 2025)

The molecules below were run against recombinant 17β-HSD13 protein (Homo sapiens (Human), UniProt Q7Z5P4) (assay: 17β-HSD13 biochemical assay (NAD+/NADH Glo chemiluminescence)). Settings: 17β-HSD13 50 nM, NAD+ 10 mM, β-estradiol 20 μM, 2 hours room temperature.
Method: 17β-HSD13 biochemical assays are generically described in patents WO 2022/020730, WO 2021/003295, and WO 2023/023310. More specifically, recombinant 17β-HSD13 protein was assayed in a buffer containing 200 mM Tris pH 7.5, 0.01% Triton X-100, and 0.02% BSA into a 384-well assay plate. Compounds were incubated with 17β-HSD13 (final 50 nM) and NAD+ (final 10 mM) at room temperature for 1 h prior to substrate addition. The assay reaction was then initiated by addition of β-estradiol (final 20 μM), and the reaction mixture was incubated for 2 hours at room temperature. Product formation was detected with chemiluminescence by adding equal volume of NAD+/NADH Glo reagent (Promega, #G9062) and read on a PHERAstar microplate reader (BMG LABTECH). IC50 values were determined with GraphPad Prism®, where log-transformed concentration values and the inhibition data were fitted to a four-parameter logistic equation. Y=Bottom+(Top−Bottom)/(1+10^((Log IC50−X)*HillSlope)). The original, % control, or % inhibition data are represented by Y along with their minimal (Bottom) and maximal (Top) values. The inhibitor concentration is represented by X, IC50 is the concentration at 50% maximal value, and Hill Slope is the slope factor.

Sequence of recombinant 17β-HSD13 protein (Q7Z5P4 20-300): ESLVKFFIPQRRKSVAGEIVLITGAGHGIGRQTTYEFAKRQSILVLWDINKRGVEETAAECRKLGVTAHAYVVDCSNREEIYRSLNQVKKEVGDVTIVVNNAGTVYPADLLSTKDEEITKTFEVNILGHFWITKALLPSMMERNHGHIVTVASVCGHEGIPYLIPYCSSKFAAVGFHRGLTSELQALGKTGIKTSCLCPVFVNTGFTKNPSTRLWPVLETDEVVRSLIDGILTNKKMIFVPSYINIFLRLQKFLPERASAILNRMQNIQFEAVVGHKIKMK

Compound | IC50 [nM]
CCN1C(=O)N(Cc2nnc(-c3ccc(F)c(O)c3F)s2)C2(CCC2)C1=O [Compound I-1, 5-((5-(2,4-difluoro-3-hydroxyphenyl)-1,3,4-thiadiazol-2-yl)methyl)-7-ethyl-5,7-diazaspiro[3.4]octane-6,8-dione] | 56.7
CCN1C(=O)N(Cc2nnc(-c3cnc(F)c(O)c3)s2)C2(CC2)C1=O [Compound I-2, 6-ethyl-4-((5-(6-fluoro-5-hydroxypyridin-3-yl)-1,3,4-thiadiazol-2-yl)methyl)-4,6-diazaspiro[2.4]heptane-5,7-dione] | 156
CCN1C(=O)N(Cc2nnc(-c3ccc(F)c(O)c3F)s2)C(C)(C)C1=O [Compound I-8, 1-((5-(2,4-difluoro-3-hydroxyphenyl)-1,3,4-thiadiazol-2-yl)methyl)-3-ethyl-5,5-dimethylimidazolidine-2,4-dione] | 90.8
CCN1C(=O)N(Cc2nnc(-c3cncc(O)c3Cl)s2)C2(CC2)C1=O [Compound I-11, 4-((5-(4-chloro-5-hydroxypyridin-3-yl)-1,3,4-thiadiazol-2-yl)methyl)-6-ethyl-4,6-diazaspiro[2.4]heptane-5,7-dione] | 245
CCN1C(=O)N(Cc2nnc(-c3cnc(Cl)c(O)c3)s2)C2(CC2)C1=O [Compound I-12, 4-((5-(6-chloro-5-hydroxypyridin-3-yl)-1,3,4-thiadiazol-2-yl)methyl)-6-ethyl-4,6-diazaspiro[2.4]heptane-5,7-dione] | 323
CCN1C(=O)N(Cc2nnc(-c3cc(C(F)(F)F)cc(O)c3Cl)s2)C2(CC2)C1=O [Compound I-13, 4-((5-(2-chloro-3-hydroxy-5-(trifluoromethyl)phenyl)-1,3,4-thiadiazol-2-yl)methyl)-6-ethyl-4,6-diazaspiro[2.4]heptane-5,7-dione] | 13.8 ± 2.2
O=C1N(CC(F)(F)F)C(=O)C2(CC2)N1Cc1nnc(-c2ccc(Cl)c(O)c2Cl)s1 [Compound I-17, 4-((5-(2,4-dichloro-3-hydroxyphenyl)-1,3,4-thiadiazol-2-yl)methyl)-6-(2,2,2-trifluoroethyl)-4,6-diazaspiro[2.4]heptane-5,7-dione] | 106
O=C1N(CC(F)(F)F)C(=O)C2(CC2)N1Cc1nnc(-c2cncc(O)c2Cl)s1 [Compound I-18, 4-((5-(4-chloro-5-hydroxypyridin-3-yl)-1,3,4-thiadiazol-2-yl)methyl)-6-(2,2,2-trifluoroethyl)-4,6-diazaspiro[2.4]heptane-5,7-dione] | 193
O=C1N(Cc2ncccn2)C(=O)C2(CC2)N1Cc1nnc(-c2ccc(F)c(O)c2F)s1 [Compound I-21, 4-((5-(2,4-difluoro-3-hydroxyphenyl)-1,3,4-thiadiazol-2-yl)methyl)-6-(pyrimidin-2-ylmethyl)-4,6-diazaspiro[2.4]heptane-5,7-dione] | 620
CCN1C(=O)N(Cc2nnc(-c3ccc(Cl)c(O)c3F)s2)C2(CC2)C1=O [Compound I-23, 4-[[5-(4-chloro-2-fluoro-3-hydroxy-phenyl)-1,3,4-thiadiazol-2-yl]methyl]-6-ethyl-4,6-diazaspiro[2.4]heptane-5,7-dione] | 78.8
O=C1N(CC(F)(F)F)C(=O)C2(CC2)N1Cc1nnc(-c2ccc(Cl)c(O)c2F)s1 [Compound I-24, 4-((5-(4-chloro-2-fluoro-3-hydroxyphenyl)-1,3,4-thiadiazol-2-yl)methyl)-6-(2,2,2-trifluoroethyl)-4,6-diazaspiro[2.4]heptane-5,7-dione] | 71.4
O=C1N(CC2(C(F)(F)F)CC2)C(=O)C2(CC2)N1Cc1nnc(-c2ccc(Cl)c(O)c2F)s1 [Compound I-25, 4-((5-(4-chloro-2-fluoro-3-hydroxyphenyl)-1,3,4-thiadiazol-2-yl)methyl)-6-((1-(trifluoromethyl)cyclopropyl)methyl)-4,6-diazaspiro[2.4]heptane-5,7-dione] | 146

The remaining lines, values ahead:

IC50 [nM] | Compound
8.43 | O=C1N(C(c2ccc(F)cc2F)C(F)(F)F)C(=O)C2(CC2)N1Cc1nnc(-c2ccc(F)c(O)c2Cl)s1 (single isomer, unassigned) [Compound I-54B]
355 | O=C1NC(=O)C2(CC2)N1Cc1nnc(-c2ccc(F)c(O)c2F)s1 [Compound I-27, 4-((5-(2,4-difluoro-3-hydroxyphenyl)-1,3,4-thiadiazol-2-yl)methyl)-4,6-diazaspiro[2.4]heptane-5,7-dione]
8.11 | CCCCN1C(=O)N(Cc2nnc(-c3ccc(F)c(O)c3F)s2)C2(CC2)C1=O [Compound I-28, 6-butyl-4-((5-(2,4-difluoro-3-hydroxyphenyl)-1,3,4-thiadiazol-2-yl)methyl)-4,6-diazaspiro[2.4]heptane-5,7-dione]
18.6 | O=C1N(CCC(F)(F)F)C(=O)C2(CC2)N1Cc1nnc(-c2ccc(F)c(O)c2F)s1 [Compound I-29, 4-((5-(2,4-difluoro-3-hydroxyphenyl)-1,3,4-thiadiazol-2-yl)methyl)-6-(3,3,3-trifluoropropyl)-4,6-diazaspiro[2.4]heptane-5,7-dione]
8.83 | O=C1N(Cc2ccc(F)cc2F)C(=O)C2(CC2)N1Cc1nnc(-c2ccc(F)c(O)c2Cl)s1 [Compound I-33, 4-((5-(2-chloro-4-fluoro-3-hydroxyphenyl)-1,3,4-thiadiazol-2-yl)methyl)-6-(2,4-difluorobenzyl)-4,6-diazaspiro[2.4]heptane-5,7-dione]
38.5 | O=C1N(Cc2ccccc2)C(=O)C2(CC2)N1Cc1nnc(-c2ccc(Cl)c(O)c2Cl)s1 [Compound I-36, 6-benzyl-4-((5-(2,4-dichloro-3-hydroxyphenyl)-1,3,4-thiadiazol-2-yl)methyl)-4,6-diazaspiro[2.4]heptane-5,7-dione]
32.7 | O=C1N(CCc2ccccc2)C(=O)C2(CC2)N1Cc1nnc(-c2ccc(F)c(O)c2Cl)s1 [Compound I-37, 4-((5-(2-chloro-4-fluoro-3-hydroxyphenyl)-1,3,4-thiadiazol-2-yl)methyl)-6-phenethyl-4,6-diazaspiro[2.4]heptane-5,7-dione]
39.4 | N#Cc1ccccc1CN1C(=O)N(Cc2nnc(-c3ccc(F)c(O)c3Cl)s2)C2(CC2)C1=O [Compound I-38, 2-((4-((5-(2-chloro-4-fluoro-3-hydroxyphenyl)-1,3,4-thiadiazol-2-yl)methyl)-5,7-dioxo-4,6-diazaspiro[2.4]heptan-6-yl)methyl)benzonitrile]
8.45 | O=C1N(CC(F)(F)F)C(=O)C2(CC2)N1Cc1nnc(-c2cc(C(F)(F)F)cc(O)c2F)s1 [Compound I-39, 4-((5-(2-fluoro-3-hydroxy-5-(trifluoromethyl)phenyl)-1,3,4-thiadiazol-2-yl)methyl)-6-(2,2,2-trifluoroethyl)-4,6-diazaspiro[2.4]heptane-5,7-dione]
18.5 | O=C1N(C2CC2)C(=O)C2(CC2)N1Cc1nnc(-c2ccc(F)c(O)c2F)s1 [Compound I-43, 6-cyclopropyl-4-((5-(2,4-difluoro-3-hydroxyphenyl)-1,3,4-thiadiazol-2-yl)methyl)-4,6-diazaspiro[2.4]heptane-5,7-dione]
7.38 | COc1ccc(CN2C(=O)N(Cc3nnc(-c4ccc(F)c(O)c4Cl)s3)C3(CC3)C2=O)c(F)c1 [Compound I-44, 4-((5-(2-chloro-4-fluoro-3-hydroxyphenyl)-1,3,4-thiadiazol-2-yl)methyl)-6-(2-fluoro-4-methoxybenzyl)-4,6-diazaspiro[2.4]heptane-5,7-dione]
1030 | O=C(O)CN1C(=O)N(Cc2nnc(-c3ccc(F)c(O)c3Cl)s2)C2(CC2)C1=O [Compound I-45, 2-(4-((5-(2-chloro-4-fluoro-3-hydroxyphenyl)-1,3,4-thiadiazol-2-yl)methyl)-5,7-dioxo-4,6-diazaspiro[2.4]heptan-6-yl)acetic acid]
53 | C[C@@H](CO)N1C(=O)N(Cc2nnc(-c3ccc(F)c(O)c3F)s2)C2(CC2)C1=O [Compound I-47, (S)-4-((5-(2,4-difluoro-3-hydroxyphenyl)-1,3,4-thiadiazol-2-yl)methyl)-6-(1-hydroxypropan-2-yl)-4,6-diazaspiro[2.4]heptane-5,7-dione]
1060 | C[C@H](COCC(=O)O)N1C(=O)N(Cc2nnc(-c3ccc(F)c(O)c3F)s2)C2(CC2)C1=O [Compound I-48]
426 | C[C@@H](COCC(=O)O)N1C(=O)N(Cc2nnc(-c3ccc(F)c(O)c3F)s2)C2(CC2)C1=O [Compound I-49]
12.5 | O=C1N(CC(F)(F)F)C(=O)C2(CC2)N1Cc1nnc(-c2cc(C(F)(F)F)c(F)c(O)c2F)s1 [Compound I-56, 4-((5-(2,4-difluoro-3-hydroxy-5-(trifluoromethyl)phenyl)-1,3,4-thiadiazol-2-yl)methyl)-6-(2,2,2-trifluoroethyl)-4,6-diazaspiro[2.4]heptane-5,7-dione]
293 | O=C1N(CC(F)(F)F)C(=O)C2(CC2)N1Cc1nnc(-c2nc(C(F)(F)F)c(F)c(O)c2F)s1 [Compound I-58, 4-((5-(3,5-difluoro-4-hydroxy-6-(trifluoromethyl)pyridin-2-yl)-1,3,4-thiadiazol-2-yl)methyl)-6-(2,2,2-trifluoroethyl)-4,6-diazaspiro[2.4]heptane-5,7-dione]
161 | O=C1N(Cc2ccccc2)C(=O)C2(CC2)N1Cc1nnc(-c2nc(C(F)(F)F)c(F)c(O)c2F)s1 [Compound I-59, 6-benzyl-4-((5-(3,5-difluoro-4-hydroxy-6-(trifluoromethyl)pyridin-2-yl)-1,3,4-thiadiazol-2-yl)methyl)-4,6-diazaspiro[2.4]heptane-5,7-dione]
